Experimental data reported in patent US20250228239A1, “MOLECULES HAVING PESTICIDAL UTILITY, AND INTERMEDIATES, COMPOSITIONS, AND PROCESSES, RELATED THERETO” (priority 2024, published 2025).

Experiments:
Type in all cases: in vivo
[1] = tested on: Beet Armyworm (Spodoptera exigua, LAPHEG); test: Bioassays on Beet Armyworm (BAW), 128-well diet tray assay; settings: Spodoptera exigua; Beet Armyworm, Table ABC / ABC-DP rating; read-out: BAW rating
Method in brief: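 Second-instar larvae, one to five per well, were placed on artificial diet surface-treated with 50 μg/cm^2 compound in 90:10 acetone-water, eight wells per treatment. Trays were held 5–7 days at 25 °C, 14:10 light-dark. Percent mortality per well was averaged over eight wells.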

[2] = tested on: Cabbage Looper (Trichoplusia ni, TRIPNI); test: Bioassays on Cabbage Looper (CL), 128-well diet tray assay; settings: Trichoplusia ni; Cabbage Looper, Table ABC / ABC-DP rating; read-out: CL rating
Method in brief: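 Each of eight wells receives artificial diet treated at 50 μg/cm^2 with the test molecule, then one to five second-instar larvae. Incubation runs five to seven days at 25° C with a 14:10 light-dark cycle under vented covers. Mortality is scored per well as a percentage and averaged.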

[3] = tested on: Yellow Fever Mosquito (Aedes aegypti, AEDSAE); settings: Yellow Fever Mosquito, Table ABC / ABC-DP rating
Method in brief: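 Compounds from DMSO master plates (4000 ppm stock) diluted in 90:10 water/acetone, then dispensed into six replicate plates and infested with ~1-day-old Aedes aegypti larvae in liver-powder water. Held covered at room temperature for 3 days; each well scored for larval mortality and graded on a rating scale.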

SMILES	pest or weed control at 50 µg/cm2 [1] [%]	pest or weed control at 50 µg/cm2 [2] [%]	YFM rating [3]
O=C(NCC(F)(F)F)c1cc(NC(=O)[C@H]2[C@H](c3cc(F)c(Cl)c(Cl)c3)C2(Cl)Cl)ccc1Cl (relative stereo) [F2006, trans-2-Chloro-5-(2,2-dichloro-3-(3,4-dichloro-5-fluorophenyl)cyclopropane-1-carboxamido)-N-(2,2,2-trifluoroethyl)benzamide]	50 to 100	50 to 100	A (80–100)
O=C(NCC(F)(F)F)c1cc(NC(=O)[C@H]2[C@@H](c3cc(F)c(Cl)c(Cl)c3)C2(Cl)Cl)ccc1Cl (relative stereo) [F2007, cis-2-Chloro-5-(2,2-dichloro-3-(3,4-dichloro-5-fluorophenyl)cyclopropane-1-carboxamido)-N-(2,2,2-trifluoroethyl)benzamide]	50 to 100	50 to 100	A (80–100)
O=C(NCC(F)(F)F)c1cc(NC(=O)[C@H]2[C@H](c3cc(Br)cc(S(F)(F)(F)(F)F)c3)C2(Cl)Cl)ccc1Cl (relative stereo) [F2008, trans-5-(3-(3-Bromo-5-(pentafluoro-λ^6-sulfanyl)phenyl)-2,2-dichlorocyclopropane-1-carboxamido)-2-chloro-N-(2,2,2-trifluoroethyl)benzamide]	50 to 100	50 to 100	A (80–100)
O=C(NCC(F)(F)F)c1cc(NC(=O)[C@H]2[C@@H](c3ccc(F)c(Cl)c3F)C2(Cl)Cl)ccc1Cl (relative stereo) [F2010, cis-2-Chloro-5-(2,2-dichloro-3-(3-chloro-2,4-difluorophenyl)cyclopropane-1-carboxamido)-N-(2,2,2-trifluoroethyl)benzamide]	50 to 100	50 to 100	A (80–100)
O=C(NCC(F)(F)F)c1cc(NC(=O)[C@H]2[C@H](c3cc(C(F)(F)F)cc(Cl)c3F)C2(Cl)Cl)ccc1Cl (relative stereo) [F2012, trans-2-Chloro-5-(2,2-dichloro-3-(3-chloro-2-fluoro-5-(trifluoromethyl)phenyl)cyclopropane-1-carboxamido)-N-(2,2,2-trifluoroethyl)benzamide]	50 to 100	50 to 100	A (80–100)
O=C(NCC(F)(F)F)c1cc(NC(=O)[C@H]2[C@@H](c3cc(C(F)(F)F)cc(Cl)c3F)C2(Cl)Cl)ccc1Cl (relative stereo) [F2013, cis-2-Chloro-5-(2,2-dichloro-3-(3-chloro-2-fluoro-5-(trifluoromethyl)phenyl)cyclopropane-1-carboxamido)-N-(2,2,2-trifluoroethyl)benzamide]	50 to 100	50 to 100	A (80–100)
Cc1cc([C@H]2[C@H](C(=O)Nc3ccc(Cl)c(C(=O)NCC(F)(F)F)c3)C2(Cl)Cl)cc(C(F)(F)F)c1F (relative stereo) [F2014, trans-2-Chloro-5-(2,2-dichloro-3-(4-fluoro-3-methyl-5-(trifluoromethyl)phenyl)-cyclopropane-1-carboxamido)-N-(2,2,2-trifluoroethyl)benzamide]	50 to 100	50 to 100	A (80–100)
Cc1cc([C@@H]2[C@H](C(=O)Nc3ccc(Cl)c(C(=O)NCC(F)(F)F)c3)C2(Cl)Cl)cc(C(F)(F)F)c1F (relative stereo) [F2015, cis-2-Chloro-5-(2,2-dichloro-3-(4-fluoro-3-methyl-5-(trifluoromethyl)phenyl)-cyclopropane-1-carboxamido)-N-(2,2,2-trifluoroethyl)benzamide]	50 to 100	50 to 100	A (80–100)
O=C(NCC(F)(F)C(F)(F)F)c1c(F)ccc(NC(=O)[C@H]2[C@H](c3ccc(F)c(Cl)c3)C2(Cl)Cl)c1F (relative stereo) [F2018, trans-3-(2,2-Dichloro-3-(3-chloro-4-fluorophenyl)cyclopropane-1-carboxamido)-2,6-difluoro-N-(2,2,3,3,3-pentafluoropropyl)benzamide]	50 to 100	50 to 100	A (80–100)
CCNC(=O)c1c(Cl)ccc(NC(=O)[C@H]2[C@H](c3ccc(F)c(Cl)c3)C2(Cl)Cl)c1Cl (relative stereo) [F2019, trans-2,6-Dichloro-3-(2,2-dichloro-3-(3-chloro-4-fluorophenyl)cyclopropane-1-carboxamido)-N-ethylbenzamide]	50 to 100	50 to 100	A (80–100)
CCCNC(=O)c1c(Cl)ccc(NC(=O)[C@H]2[C@H](c3ccc(F)c(Cl)c3)C2(Cl)Cl)c1Cl (relative stereo) [F2022, trans-2,6-Dichloro-3-(2,2-dichloro-3-(3-chloro-4-fluorophenyl)cyclopropane-1-carboxamido)-N-propylbenzamide]	50 to 100	50 to 100	A (80–100)
O=C(NCCC(F)(F)F)c1c(F)ccc(NC(=O)[C@H]2[C@H](c3ccc(F)c(Cl)c3)C2(Cl)Cl)c1F (relative stereo) [F2023, trans-3-(2,2-Dichloro-3-(3-chloro-4-fluorophenyl)cyclopropane-1-carboxamido)-2,6-difluoro-N-(3,3,3-trifluoropropyl)benzamide]	50 to 100	50 to 100	A (80–100)
O=C(NCCC(F)(F)F)c1c(Cl)ccc(NC(=O)[C@H]2[C@H](c3ccc(F)c(Cl)c3)C2(Cl)Cl)c1Cl (relative stereo) [F2024, trans-2,6-Dichloro-3-(2,2-dichloro-3-(3-chloro-4-fluorophenyl)cyclopropane-1-carboxamido)-N-(3,3,3-trifluoropropyl)benzamide]	50 to 100	50 to 100	A (80–100)
O=C(NCCCCl)c1c(F)ccc(NC(=O)[C@H]2[C@H](c3ccc(F)c(Cl)c3)C2(Cl)Cl)c1F (relative stereo) [F2028, trans-N-(3-Chloropropyl)-3-(2,2-dichloro-3-(3-chloro-4-fluorophenyl)cyclopropane-1-carboxamido)-2,6-difluorobenzamide]	50 to 100	50 to 100	A (80–100)
CCNC(=O)c1cc(NC(=O)[C@H]2[C@H](c3ccc(F)c(Cl)c3)C2(Cl)Cl)cc(C)c1F (relative stereo) [F2029, trans-5-(2,2-Dichloro-3-(3-chloro-4-fluorophenyl)cyclopropane-1-carboxamido)-N-ethyl-2-fluoro-3-methylbenzamide]	50 to 100	50 to 100	A (80–100)
Cc1cc(NC(=O)[C@H]2[C@H](c3ccc(F)c(Cl)c3)C2(Cl)Cl)cc(C(=O)NCC(F)(F)F)c1F (relative stereo) [F2030, trans-5-(2,2-Dichloro-3-(3-chloro-4-fluorophenyl)cyclopropane-1-carboxamido)-2-fluoro-3-methyl-N-(2,2,2-trifluoroethyl)benzamide]	50 to 100	50 to 100	A (80–100)
Cc1cc(NC(=O)[C@H]2[C@H](c3ccc(F)c(Cl)c3)C2(Cl)Cl)cc(C(=O)NCC(F)(F)C(F)(F)F)c1F (relative stereo) [F2031, trans-5-(2,2-Dichloro-3-(3-chloro-4-fluorophenyl)cyclopropane-1-carboxamido)-2-fluoro-3-methyl-N-(2,2,3,3,3-pentafluoropropyl)benzamide]	50 to 100	50 to 100	A (80–100)
Cc1cc(NC(=O)[C@H]2[C@H](c3ccc(F)c(Cl)c3)C2(Cl)Cl)cc(C(=O)NCCCCl)c1F (relative stereo) [F2032, trans-N-(3-Chloropropyl)-5-(2,2-dichloro-3-(3-chloro-4-fluorophenyl)-cyclopropane-1-carboxamido)-2-fluoro-3-methylbenzamide]	50 to 100	50 to 100	A (80–100)
O=C(NCC(F)(F)C(F)(F)F)c1cc(NC(=O)[C@H]2[C@H](c3ccc(F)c(Cl)c3)C2(Cl)Cl)cc(F)c1Cl (relative stereo) [F2035, trans-2-Chloro-5-(2,2-dichloro-3-(3-chloro-4-fluorophenyl)cyclopropane-1-carboxamido)-3-fluoro-N-(2,2,3,3,3-pentafluoropropyl)benzamide]	50 to 100	50 to 100	A (80–100)
O=C(NCCCCl)c1cc(NC(=O)[C@H]2[C@H](c3ccc(F)c(Cl)c3)C2(Cl)Cl)cc(F)c1Cl (relative stereo) [F2036, trans-2-Chloro-N-(3-chloropropyl)-5-(2,2-dichloro-3-(3-chloro-4-fluorophenyl)cyclopropane-1-carboxamido)-3-fluorobenzamide]	50 to 100	50 to 100	A (80–100)
CCNC(=O)c1cc(NC(=O)[C@H]2[C@H](c3ccc(F)c(Cl)c3)C2(Cl)Cl)cc(C)c1Cl (relative stereo) [F2037, trans-2-Chloro-5-(2,2-dichloro-3-(3-chloro-4-fluorophenyl)cyclopropane-1-carboxamido)-N-ethyl-3-methylbenzamide]	50 to 100	50 to 100	A (80–100)
